The text below walks through data of patent USRE48267E1, “Variants of C-type natriuretic peptide” (priority 2009, dated 2020).

One data set deals with Recombinant human NEP (Homo sapiens, UniProt P08473). The experiment in a line: in vitro NEP cleavage assay (disappearance of non-cleaved CNP variant). In outline:
(§1)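 Recombinant human NEP (1 ug/mL final) incubated with 100 uM CNP variant in 0.1 M Tris, pH 7, at 37° C for various times, then quenched with EDTA (10 mM final) and heat. Samples reduced and analysed by HPLC and mass spectrometry. Half-life derived from loss of intact variant over time.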

The next data set concerns wild-type FVB mice. The experiment in a line: efficacy of CNP variants on bone growth in wild-type mice. The following applies: 200 nmol/kg s.c. once daily for 5 weeks. In kind it is in vivo, mouse. Here is the method:
The in vivo effects of CNP variants on bone growth were assessed in wild-type mice. Three week old FVB wild-type male mice received daily subcutaneous (s.c.) injection of either vehicle, G-CNP37 (200 nmol/kg) or […]”) (SEQ ID NO: 36) (200 nmol/kg) for 5 weeks. Body weight was measured at least once weekly. Tail length was measured at least once weekly using digital caliper readings, and body length (naso-anal length), bone length (tibia, femur, ulna and humerus), skull length (anterior to posterior cranial segment) and lumbar vertebrae 5 (LV5) length were measured after 5 weeks of treatment using a caliper. X-rays were taken at baseline and after 5 weeks of treatment. […] In another study, various dosing regimens of Pro-Gly-CNP37 were administered for nine weeks followed by one week of recovery. Wild-type FVB mice were dosed s.c. with: • (1) vehicle daily for nine weeks, followed by one week of recovery; • (2) 20 nmol/kg Pro -Gly-CNP37 daily for one week, followed by three doses per week for eight weeks and one week of recovery; • (3) 20 nmol/kg Pro-Gly-CNP37 on alternating weeks; or • (4) 5 nmol/kg Pro-Gly-CNP37 daily for nine weeks followed by one week of recovery.

Data set [1] can be described thus: IgG assay (immunogenicity) in mice. The procedure: An IgG assay was performed to assess whether an IgG immune response was triggered by 5 week exposure of achondroplastic FGFR3^ach mice to CNP22, CNP37 or PEO24-GANRR-CNP22(K4R) (“CNP27-PEO24”) (SEQ ID NO: 36). IgG is the most predominant immunoglobulin in mouse and human serum and is produced as part of the secondary immune response to an antigen. The IgG response to administration of the CNP peptides was determined as follows. 96-well plates were coated with 100 ng/mL CNP22, CNP37 or PEO24-GANRR-CNP22(K4R) (SEQ ID NO: 36) in BupH PBS buffer (Pierce/Thermo, Cat. No. 28372, Rockford, Ill.). After overnight incubation, plates were blocked with Casein-PBS blocking buffer (Pierce/Thermo, Cat. No. 37528) for two hours at room temperature with shaking at 300 rpm. After washing with wash buffer (1×PBS with 0.05% Tween), diluted serum samples from a terminal bleed (diluted 1:25) were added to the plate. Positive and negative controls were also loaded onto the plate. Positive control was 1:25 diluted serum (pooled from 6 individual FVB mice) with anti-CNP22 antibody added (Bachem rabbit anti-CNP22 IgG, Cat. No. T-4222) at 1:1000 dilution. Negative control was the diluted pooled serum. After two hours of incubation, the plates were washed and secondary antibody diluted in blocking buffer was added to the wells. For the mouse serum samples, anti-mouse IgG Fcγ (peroxidase-conjugated affinipure goat anti-mouse IgG, Fcγ fragment, Cat. No. 115-035-071, Jackson Immunoresearch, West Grove, Pa.) was added at a 1:10,000 dilution. For the positive and negative controls, anti-rabbit IgG-HRP (Santa Cruz Biotechnology, Cat. No. SC-2004, Santa Cruz, Calif.) was added to blocking buffer. After two hours of incubation at room temperature with shaking at 300 rpm, plates were washed with wash buffer. 100 uL of TMB (One-step TMB, Pierce/Thermo, Cat. No. 34022) was added to all wells. Plates were incubated at room temperature for 15 minutes with shaking at 300 rpm. Colorimetric reactions were stopped by the addition of 100 uL of 2 N H2SO4. Plates were read at 450 nm (Spectramax, Molecular Devices, Sunnyvale, Calif.) and data was analyzed using SoftMax Pro software (Molecular Devices).
The immunogenic response of wild-type mice administered G-CNP37, PEO12-GANRR-CNP22(K4R) (SEQ ID NO: 36) or Pro-Gly-CNP37, as measured by an increase in serum IgG level, was also assessed by examining terminal bleed serum samples as described above.

Data set [2] can be described thus: pharmacokinetics in rats (plasma CNP immunoreactivity by RIA). In kind it is in vivo, rat. The procedure: Recombinant wild-type CNP22, CNP37 and PEO24-GANRR-CNP22 […]) (SEQ ID NO: 36) were evaluated. […] Standard and QC samples were prepared. […] Plasma CNP immunoreactivity was employed for pharmacokinetics (PK) analysis. PK analysis was performed using WINNONLIN® Professional (Pharsight Corporation).

The conditions of data set [3]: normal human; cited from earlier work.
The target of another data set is NPR-B (Homo sapiens, UniProt P20594). The conditions noted are these: read-out: affinity to NPR-B; cited from earlier work.
A further data set concerns the target NPR-C (Homo sapiens, UniProt P17342). The following applies: read-out: affinity to NPR-C; cited from earlier work.
The target in data set [4] is neutral endopeptidase (NEP) (Homo sapiens, UniProt P08473). The experiment in a line: in vitro. The following applies: human, pH 7. Summed up: as §1
Data set [5] deals with NPR-B (natriuretic peptide receptor B), murine, expressed endogenously on NIH3T3 cells (murine) (UniProt Q6VVW5). Description: cell-based or functional assay.

The term bioavailability denotes the share of a dose that reaches the circulation, judged against a reference dose that is usually intravenous. Low values mean poor availability, high ones good availability. By half-life is commonly meant the time needed for the level to fall by half in the phase considered.

Marks after values point to notes of the source that are not given here. Where a SMILES comes first, the peptide text is derived from it. Bridges are numbered along the chain shown (N, C = ends). The star is where a group is joined. CH3O(CH2CH2O)11CH2CH2CO = COCCOCCOCCOCCOCCOCCOCCOCCOCCOCCOCCOCCC(=O)*

Recombinant human NEP, sequence (P08473 whole entry): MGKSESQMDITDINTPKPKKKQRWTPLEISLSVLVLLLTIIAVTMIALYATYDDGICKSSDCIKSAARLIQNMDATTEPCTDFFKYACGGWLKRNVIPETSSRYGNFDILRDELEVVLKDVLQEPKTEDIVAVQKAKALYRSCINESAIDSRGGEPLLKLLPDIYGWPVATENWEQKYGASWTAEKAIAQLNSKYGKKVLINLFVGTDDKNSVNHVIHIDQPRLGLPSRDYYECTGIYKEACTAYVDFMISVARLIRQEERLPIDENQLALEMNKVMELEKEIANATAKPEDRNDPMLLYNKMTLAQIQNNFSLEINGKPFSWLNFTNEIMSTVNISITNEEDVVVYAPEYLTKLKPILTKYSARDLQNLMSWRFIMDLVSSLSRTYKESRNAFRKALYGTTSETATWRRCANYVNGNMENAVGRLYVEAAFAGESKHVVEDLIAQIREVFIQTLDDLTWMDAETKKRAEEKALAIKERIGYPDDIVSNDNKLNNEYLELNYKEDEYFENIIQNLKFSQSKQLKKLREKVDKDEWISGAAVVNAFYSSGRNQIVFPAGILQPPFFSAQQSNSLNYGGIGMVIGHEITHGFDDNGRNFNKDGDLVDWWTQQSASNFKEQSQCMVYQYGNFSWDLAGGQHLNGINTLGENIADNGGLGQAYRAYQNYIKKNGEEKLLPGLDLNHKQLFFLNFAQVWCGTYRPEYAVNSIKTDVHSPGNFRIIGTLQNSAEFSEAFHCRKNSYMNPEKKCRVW
NPR-B (natriuretic peptide receptor B), murine, expressed endogenously on NIH3T3 cells (murine), sequence (Q6VVW5 17-1047): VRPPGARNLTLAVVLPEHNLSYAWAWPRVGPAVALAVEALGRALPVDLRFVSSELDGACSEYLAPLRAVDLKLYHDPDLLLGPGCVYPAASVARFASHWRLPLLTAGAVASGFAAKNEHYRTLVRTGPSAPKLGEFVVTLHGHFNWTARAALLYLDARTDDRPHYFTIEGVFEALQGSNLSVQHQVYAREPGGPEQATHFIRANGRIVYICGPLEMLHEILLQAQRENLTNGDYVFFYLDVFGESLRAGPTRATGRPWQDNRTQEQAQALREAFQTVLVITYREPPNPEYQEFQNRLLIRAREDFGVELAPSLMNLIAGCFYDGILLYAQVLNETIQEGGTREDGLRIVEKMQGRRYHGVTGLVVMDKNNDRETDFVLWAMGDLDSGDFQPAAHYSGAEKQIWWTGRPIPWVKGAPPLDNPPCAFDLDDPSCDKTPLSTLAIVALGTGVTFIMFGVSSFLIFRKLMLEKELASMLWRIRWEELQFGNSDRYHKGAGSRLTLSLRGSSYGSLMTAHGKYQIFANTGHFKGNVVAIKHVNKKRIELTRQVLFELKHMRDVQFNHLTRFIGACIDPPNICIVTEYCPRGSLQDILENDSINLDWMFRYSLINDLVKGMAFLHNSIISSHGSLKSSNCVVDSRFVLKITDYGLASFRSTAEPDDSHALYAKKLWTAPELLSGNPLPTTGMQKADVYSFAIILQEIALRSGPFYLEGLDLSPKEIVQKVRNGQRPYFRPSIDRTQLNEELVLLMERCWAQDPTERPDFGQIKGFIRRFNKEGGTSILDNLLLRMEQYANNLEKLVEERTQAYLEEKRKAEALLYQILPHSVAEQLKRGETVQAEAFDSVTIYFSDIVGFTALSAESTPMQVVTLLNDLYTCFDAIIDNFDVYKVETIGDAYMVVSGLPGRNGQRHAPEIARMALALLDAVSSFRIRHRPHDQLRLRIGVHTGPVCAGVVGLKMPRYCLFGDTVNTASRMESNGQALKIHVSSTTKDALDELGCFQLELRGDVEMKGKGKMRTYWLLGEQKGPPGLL
NPR-C, sequence (P17342 27-541, species assumed): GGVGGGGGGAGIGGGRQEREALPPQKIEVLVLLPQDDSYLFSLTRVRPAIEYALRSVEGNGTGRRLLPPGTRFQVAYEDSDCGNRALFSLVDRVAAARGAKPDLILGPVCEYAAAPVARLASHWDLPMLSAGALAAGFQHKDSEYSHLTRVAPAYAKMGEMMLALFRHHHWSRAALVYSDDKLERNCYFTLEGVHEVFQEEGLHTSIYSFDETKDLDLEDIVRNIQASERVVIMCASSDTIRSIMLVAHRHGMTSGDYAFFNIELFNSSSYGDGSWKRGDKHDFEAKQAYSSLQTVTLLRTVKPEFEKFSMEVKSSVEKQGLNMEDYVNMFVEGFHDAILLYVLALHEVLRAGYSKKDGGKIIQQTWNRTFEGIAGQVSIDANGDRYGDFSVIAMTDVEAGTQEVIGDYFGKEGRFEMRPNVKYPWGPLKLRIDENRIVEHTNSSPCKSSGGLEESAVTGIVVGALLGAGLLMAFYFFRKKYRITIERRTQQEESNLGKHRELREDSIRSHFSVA
NPR-B, sequence (P20594 23-1047, species assumed): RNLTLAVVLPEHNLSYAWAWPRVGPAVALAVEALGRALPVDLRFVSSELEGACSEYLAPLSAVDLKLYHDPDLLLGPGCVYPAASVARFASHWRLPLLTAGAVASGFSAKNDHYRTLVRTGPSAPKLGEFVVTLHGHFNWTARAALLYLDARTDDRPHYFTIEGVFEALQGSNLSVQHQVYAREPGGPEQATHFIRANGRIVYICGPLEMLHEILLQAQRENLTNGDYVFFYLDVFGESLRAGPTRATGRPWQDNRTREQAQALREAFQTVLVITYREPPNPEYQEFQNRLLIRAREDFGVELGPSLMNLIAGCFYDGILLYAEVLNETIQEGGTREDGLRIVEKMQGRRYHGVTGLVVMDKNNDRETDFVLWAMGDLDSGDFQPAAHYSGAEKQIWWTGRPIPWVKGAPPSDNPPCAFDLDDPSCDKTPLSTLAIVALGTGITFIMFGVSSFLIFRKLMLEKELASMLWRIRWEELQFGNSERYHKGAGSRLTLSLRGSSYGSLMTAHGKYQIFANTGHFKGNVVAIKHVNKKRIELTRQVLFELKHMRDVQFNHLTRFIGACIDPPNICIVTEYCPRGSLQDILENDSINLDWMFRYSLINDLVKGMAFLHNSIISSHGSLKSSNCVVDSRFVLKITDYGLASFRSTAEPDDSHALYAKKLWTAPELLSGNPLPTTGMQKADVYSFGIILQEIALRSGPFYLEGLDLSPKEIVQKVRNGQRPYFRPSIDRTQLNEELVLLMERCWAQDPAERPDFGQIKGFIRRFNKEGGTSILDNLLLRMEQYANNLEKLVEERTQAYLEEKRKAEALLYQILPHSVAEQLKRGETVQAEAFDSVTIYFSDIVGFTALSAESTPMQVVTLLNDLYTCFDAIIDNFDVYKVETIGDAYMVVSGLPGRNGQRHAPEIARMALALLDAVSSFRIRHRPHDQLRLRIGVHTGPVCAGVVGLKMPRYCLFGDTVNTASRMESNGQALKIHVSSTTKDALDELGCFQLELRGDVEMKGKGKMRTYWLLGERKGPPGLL
neutral endopeptidase (NEP), sequence (P08473 whole entry): as the sequence (P08473 whole entry) above

For `CC[C@H](C)[C@@H]1NC(=O)[C@H](CCCNC(=N)N)NC(=O)[C@H](CC(=O)O)NC(=O)[C@H](CC(C)C)NC(=O)[C@H](CCCCN)NC(=O)[C@H](CC(C)C)NC(=O)CNC(=O)[C@H](Cc2ccccc2)NC(=O)[C@@H](NC(=O)CNC(=O)[C@H](CCCNC(=N)N)NC(=O)[C@H](CO)NC(=O)[C@H](CC(C)C)NC(=O)CNC(=O)[C@H](CCCNC(=N)N)NC(=O)[C@H](CCCNC(=N)N)NC(=O)[C@H](CC(N)=O)NC(=O)[C@H](C)NC(=O)CNC(=O)CCOCCOCCOCCOCCOCCOCCOCCOCCOCCOCCOCCOC)CSSC[C@@H](C(=O)O)NC(=O)CNC(=O)[C@H](CC(C)C)NC(=O)CNC(=O)[C@H](CO)NC(=O)[C@H](CCSC)NC(=O)[C@H](CO)NC(=O)CNC1=O` [PEO12-GANRR-CNP22(K4R)] ({CH3O(CH2CH2O)11CH2CH2CO}-GANRRGLSRGCFGLKLDRIGSMSGLGC-OH; disulfide 11-27; C-terminus assumed), in the data set with Recombinant human NEP, the “resistance to NEP cleavage (in words)” value is reported as “much greater stability to NEP degradation compared to wtCNP22”. In addition, in the data set with wild-type FVB mice, the “Anterior to Posterior (Skull) length, relative to vehicle = 100%” value is given as 101%; the “Femur length, relative to vehicle = 100%” value amounted to 102%*; the “Humerus length, relative to vehicle = 100%” value is given as 102%*; the “LV5 length, relative to vehicle = 100%” value is 103%. For the same molecule, in the data set on wild-type FVB mice, the “Naso-Anal (body) length, relative to vehicle = 100%” value is 104%**; the “Tail length, relative to vehicle = 100%” value is 101%; the “Tibia length, relative to vehicle = 100%” value was 100%; the “Ulna length, relative to vehicle = 100%” value came to 96%*. For the same molecule, the IgG immune response entry in [1] (mouse, in vivo) is recorded as “None of the wild-type mice”.
In the case of `CC[C@H](C)[C@@H]1NC(=O)[C@H](CCCNC(=N)N)NC(=O)[C@H](CC(=O)O)NC(=O)[C@H](CC(C)C)NC(=O)[C@H](CCCCN)NC(=O)[C@H](CC(C)C)NC(=O)CNC(=O)[C@H](Cc2ccccc2)NC(=O)[C@@H](NC(=O)CNC(=O)[C@H](CCCCN)NC(=O)[C@H](CO)NC(=O)[C@H](CC(C)C)NC(=O)CN)CSSC[C@@H](C(=O)O)NC(=O)CNC(=O)[C@H](CC(C)C)NC(=O)CNC(=O)[C@H](CO)NC(=O)[C@H](CCSC)NC(=O)[C@H](CO)NC(=O)CNC1=O` [CNP22, reference compound], the “NEP Cleavage (t1/2, min)” value at Recombinant human NEP (100 uM peptide, 1 ug/mL NEP, 0.1 M Tris pH 7, 37° C., adjusted t1/2, CNP22 normalized to 80 min) came to 80 min. Moreover, the “area under the curve, AUC (pmol·min/mL)” value in data set [2] (i.v. 20 nmol/kg) is listed as 320 (±54) pmol·min/mL. This molecule also came in with a bioavailability in data set [2] (s.c. 50 nmol/kg) of 19%. The IgG immune response result in [1] (FGFR3^ach mice, 5 week exposure, 200 nmol/kg) is “no positive IgG immune response in any of the mice”. Also, the “in vivo (plasma) half-life” value in data set [3] is given as 2.6 min. Besides, the Kd on NPR-B is 0.007 to 0.03 nM; on NPR-C it was 0.011 to 0.14 nM.
With `CC[C@H](C)[C@@H]1NC(=O)[C@H](CCCNC(=N)N)NC(=O)[C@H](CC(=O)O)NC(=O)[C@H](CC(C)C)NC(=O)[C@H](CCCCN)NC(=O)[C@H](CC(C)C)NC(=O)CNC(=O)[C@H](Cc2ccccc2)NC(=O)[C@@H](NC(=O)CNC(=O)[C@H](CCCCN)NC(=O)[C@H](CO)NC(=O)[C@H](CC(C)C)NC(=O)CNC(=O)[C@H](CCCCN)NC(=O)[C@H](CCCCN)NC(=O)[C@H](CC(N)=O)NC(=O)[C@H](C)NC(=O)CNC(=O)[C@H](CCCCN)NC(=O)[C@H](Cc2ccc(O)cc2)NC(=O)[C@H](CCCCN)NC(=O)[C@H](CCCNC(=N)N)NC(=O)[C@H](C)NC(=O)[C@H](CC(N)=O)NC(=O)[C@@H]2CCCN2C(=O)[C@H](Cc2c[nH]cn2)NC(=O)[C@H](CCC(=O)O)NC(=O)[C@H](CCC(N)=O)NC(=O)CN)CSSC[C@@H](C(=O)O)NC(=O)CNC(=O)[C@H](CC(C)C)NC(=O)CNC(=O)[C@H](CO)NC(=O)[C@H](CCSC)NC(=O)[C@H](CO)NC(=O)CNC1=O` [Analog DB], on Recombinant human NEP, the “resistance to NEP cleavage (in words)” value is recorded as “completely resistant to NEP cleavage”. In data set [4], the half-life at 100 uM is more than 2.67 h. In addition, the IgG immune response entry in data set [1] (mouse, in vivo) was “one out of six”.
In data set [5], “ANP (atrial natriuretic peptide) (from UniProt P01160 124-151)” gave a cGMP response rel. to 1 uM CNP22; 10 nM peptide, NIH3T3 cells (rel. to 1 uM CNP22 (100)) of 10 and a cGMP response rel. to 1 uM CNP22; 1 uM peptide, NIH3T3 cells (rel. to 1 uM CNP22 (100)) of 23.
